Measurements reported in ChEMBL document CHEMBL1938230, “6-Position optimization of tricyclic 4-quinolone-based inhibitors of glycogen synthase kinase-3β: discovery of nitrile derivatives with picomolar potency” (Bioorg Med Chem Lett, 2012).

Key:
[1] = tested on: HL-60; test: Inhibition of human PITSLRE in HL-60 cells lysate assessed as reduction of labeling of acyl-phosphate ATP probe at 100 nM
[2] = biological target: Serine/threonine-protein kinase ATR (Homo sapiens) (UniProt Q13535); test: Inhibition of human ATR in HL-60 cells lysate assessed as reduction of labeling of acyl-phosphate ATP probe at 100 nM; type: cell-free
[3] = biological target: Phosphatidylinositol 4,5-bisphosphate 3-kinase catalytic subunit beta isoform (Homo sapiens) (UniProt P42338); test: Inhibition of human PIK3CB in HL-60 cells lysate assessed as reduction of labeling of acyl-phosphate ATP probe at 100 nM; type: cell-free
[4] = biological target: T1, Serine/threonine-protein kinase Nek9 (Homo sapiens) (UniProt Q8TD19); test: Inhibition of human NEK9 in HL-60 cells lysate assessed as reduction of labeling of acyl-phosphate ATP probe at 100 nM; type: cell-free
T1 sequence (whole entry): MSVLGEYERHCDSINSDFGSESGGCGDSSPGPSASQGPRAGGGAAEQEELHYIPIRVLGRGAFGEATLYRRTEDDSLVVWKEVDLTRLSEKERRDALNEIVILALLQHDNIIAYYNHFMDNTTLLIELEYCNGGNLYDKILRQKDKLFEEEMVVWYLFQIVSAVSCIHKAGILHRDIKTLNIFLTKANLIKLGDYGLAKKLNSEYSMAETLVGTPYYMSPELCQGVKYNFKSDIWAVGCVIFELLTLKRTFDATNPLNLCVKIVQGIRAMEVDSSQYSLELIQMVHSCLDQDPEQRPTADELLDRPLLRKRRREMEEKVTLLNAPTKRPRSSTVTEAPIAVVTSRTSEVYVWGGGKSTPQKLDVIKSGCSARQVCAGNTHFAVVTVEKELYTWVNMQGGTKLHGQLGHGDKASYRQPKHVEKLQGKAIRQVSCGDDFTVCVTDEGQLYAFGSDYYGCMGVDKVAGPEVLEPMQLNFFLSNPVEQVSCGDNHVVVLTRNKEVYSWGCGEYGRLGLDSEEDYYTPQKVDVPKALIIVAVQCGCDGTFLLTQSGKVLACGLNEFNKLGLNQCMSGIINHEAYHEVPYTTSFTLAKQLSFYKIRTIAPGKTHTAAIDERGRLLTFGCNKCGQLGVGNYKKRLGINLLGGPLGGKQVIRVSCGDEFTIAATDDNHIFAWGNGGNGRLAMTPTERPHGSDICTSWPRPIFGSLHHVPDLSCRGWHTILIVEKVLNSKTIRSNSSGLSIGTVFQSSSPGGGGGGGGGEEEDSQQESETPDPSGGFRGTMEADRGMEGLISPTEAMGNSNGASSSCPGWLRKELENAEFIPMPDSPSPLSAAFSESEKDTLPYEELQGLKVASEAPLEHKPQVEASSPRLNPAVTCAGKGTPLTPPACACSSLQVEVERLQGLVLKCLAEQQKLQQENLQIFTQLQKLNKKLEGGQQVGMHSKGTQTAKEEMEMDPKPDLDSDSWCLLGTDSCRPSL

[5] = biological target: T2, EKC/KEOPS complex subunit TP53RK (Homo sapiens) (UniProt Q96S44); test: Inhibition of human PRPK in HL-60 cells lysate assessed as reduction of labeling of acyl-phosphate ATP probe at 100 nM; type: cell-free
T2 sequence (whole entry): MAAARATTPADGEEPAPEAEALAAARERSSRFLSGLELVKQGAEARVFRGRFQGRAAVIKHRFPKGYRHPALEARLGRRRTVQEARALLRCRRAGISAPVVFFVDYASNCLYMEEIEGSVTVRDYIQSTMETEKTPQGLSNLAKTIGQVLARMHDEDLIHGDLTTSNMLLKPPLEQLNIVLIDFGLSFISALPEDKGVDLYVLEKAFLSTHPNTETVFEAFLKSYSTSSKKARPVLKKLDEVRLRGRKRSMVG

[6] = biological target: Mitogen-activated protein kinase kinase kinase kinase 1 (Homo sapiens) (UniProt Q92918); test: Inhibition of human HPK1 in HL-60 cells lysate assessed as reduction of labeling of acyl-phosphate ATP probe at 100 nM; type: cell-free
[7] = biological target: Serine/threonine-protein kinase 26 (Homo sapiens) (UniProt Q9P289); test: Inhibition of human MST4 in HL-60 cells lysate assessed as reduction of labeling of acyl-phosphate ATP probe at 100 nM; type: cell-free
[8] = biological target: Serine/threonine-protein kinase OSR1 (Homo sapiens) (UniProt O95747); test: Inhibition of human OSR1 in HL-60 cells lysate assessed as reduction of labeling of acyl-phosphate ATP probe at 100 nM; type: cell-free
[9] = biological target: T3, Mitogen-activated protein kinase kinase kinase 2 (Homo sapiens) (UniProt Q9Y2U5); test: Inhibition of human MAP3K2 in HL-60 cells lysate assessed as reduction of labeling of acyl-phosphate ATP probe at 100 nM; type: cell-free
T3 sequence (whole entry): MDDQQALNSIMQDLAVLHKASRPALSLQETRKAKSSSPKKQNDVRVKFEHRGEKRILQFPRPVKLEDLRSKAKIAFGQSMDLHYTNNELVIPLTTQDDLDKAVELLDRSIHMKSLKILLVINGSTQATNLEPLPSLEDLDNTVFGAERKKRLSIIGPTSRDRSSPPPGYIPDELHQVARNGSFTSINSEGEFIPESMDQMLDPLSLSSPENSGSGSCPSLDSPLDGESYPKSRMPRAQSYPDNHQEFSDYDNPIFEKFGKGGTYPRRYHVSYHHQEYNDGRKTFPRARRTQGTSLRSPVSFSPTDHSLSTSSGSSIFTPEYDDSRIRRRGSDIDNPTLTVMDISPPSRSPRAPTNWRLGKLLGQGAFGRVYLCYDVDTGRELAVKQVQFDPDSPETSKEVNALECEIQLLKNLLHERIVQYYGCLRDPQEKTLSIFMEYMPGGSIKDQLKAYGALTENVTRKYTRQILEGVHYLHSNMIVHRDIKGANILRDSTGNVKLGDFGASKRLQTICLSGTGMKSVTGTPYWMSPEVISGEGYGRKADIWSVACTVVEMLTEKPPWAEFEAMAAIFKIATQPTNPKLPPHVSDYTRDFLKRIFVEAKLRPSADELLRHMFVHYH

[10] = biological target: Mitogen-activated protein kinase 1 (Homo sapiens) (UniProt P28482); test: Inhibition of human Erk2 in HL-60 cells lysate assessed as reduction of labeling of acyl-phosphate ATP probe at 100 nM; type: cell-free
[11] = tested on: HL-60; test: Inhibition of human P38delta/P38gamma in HL-60 cells lysate assessed as reduction of labeling of acyl-phosphate ATP probe at 100 nM

Chain of Mitogen-activated protein kinase 1 (Homo sapiens) (P28482 whole entry): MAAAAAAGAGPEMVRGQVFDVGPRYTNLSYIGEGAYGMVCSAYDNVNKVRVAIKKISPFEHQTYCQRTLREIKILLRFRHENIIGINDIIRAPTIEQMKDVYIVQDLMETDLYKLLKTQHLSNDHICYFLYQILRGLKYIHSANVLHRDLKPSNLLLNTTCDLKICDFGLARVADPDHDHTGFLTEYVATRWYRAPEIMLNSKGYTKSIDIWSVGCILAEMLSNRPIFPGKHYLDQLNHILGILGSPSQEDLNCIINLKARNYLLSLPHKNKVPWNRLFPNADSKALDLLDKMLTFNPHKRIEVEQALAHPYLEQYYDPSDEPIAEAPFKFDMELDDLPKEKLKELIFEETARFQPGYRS
Chain of Serine/threonine-protein kinase 26 (Homo sapiens) (Q9P289 2-416 limits assumed): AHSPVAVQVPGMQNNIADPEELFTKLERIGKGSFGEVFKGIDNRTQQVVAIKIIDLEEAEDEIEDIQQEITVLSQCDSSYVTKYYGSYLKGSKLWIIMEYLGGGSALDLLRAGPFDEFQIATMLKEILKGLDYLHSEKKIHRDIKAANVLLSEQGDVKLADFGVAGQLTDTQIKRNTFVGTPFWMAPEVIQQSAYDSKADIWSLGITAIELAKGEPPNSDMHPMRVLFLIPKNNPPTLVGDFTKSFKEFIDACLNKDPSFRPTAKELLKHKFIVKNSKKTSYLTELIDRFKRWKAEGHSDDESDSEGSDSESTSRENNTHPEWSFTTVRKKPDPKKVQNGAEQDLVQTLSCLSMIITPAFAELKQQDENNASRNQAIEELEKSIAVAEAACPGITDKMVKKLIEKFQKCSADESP
Chain of Serine/threonine-protein kinase ATR (Homo sapiens) (Q13535 whole entry, looked up, canonical isoform): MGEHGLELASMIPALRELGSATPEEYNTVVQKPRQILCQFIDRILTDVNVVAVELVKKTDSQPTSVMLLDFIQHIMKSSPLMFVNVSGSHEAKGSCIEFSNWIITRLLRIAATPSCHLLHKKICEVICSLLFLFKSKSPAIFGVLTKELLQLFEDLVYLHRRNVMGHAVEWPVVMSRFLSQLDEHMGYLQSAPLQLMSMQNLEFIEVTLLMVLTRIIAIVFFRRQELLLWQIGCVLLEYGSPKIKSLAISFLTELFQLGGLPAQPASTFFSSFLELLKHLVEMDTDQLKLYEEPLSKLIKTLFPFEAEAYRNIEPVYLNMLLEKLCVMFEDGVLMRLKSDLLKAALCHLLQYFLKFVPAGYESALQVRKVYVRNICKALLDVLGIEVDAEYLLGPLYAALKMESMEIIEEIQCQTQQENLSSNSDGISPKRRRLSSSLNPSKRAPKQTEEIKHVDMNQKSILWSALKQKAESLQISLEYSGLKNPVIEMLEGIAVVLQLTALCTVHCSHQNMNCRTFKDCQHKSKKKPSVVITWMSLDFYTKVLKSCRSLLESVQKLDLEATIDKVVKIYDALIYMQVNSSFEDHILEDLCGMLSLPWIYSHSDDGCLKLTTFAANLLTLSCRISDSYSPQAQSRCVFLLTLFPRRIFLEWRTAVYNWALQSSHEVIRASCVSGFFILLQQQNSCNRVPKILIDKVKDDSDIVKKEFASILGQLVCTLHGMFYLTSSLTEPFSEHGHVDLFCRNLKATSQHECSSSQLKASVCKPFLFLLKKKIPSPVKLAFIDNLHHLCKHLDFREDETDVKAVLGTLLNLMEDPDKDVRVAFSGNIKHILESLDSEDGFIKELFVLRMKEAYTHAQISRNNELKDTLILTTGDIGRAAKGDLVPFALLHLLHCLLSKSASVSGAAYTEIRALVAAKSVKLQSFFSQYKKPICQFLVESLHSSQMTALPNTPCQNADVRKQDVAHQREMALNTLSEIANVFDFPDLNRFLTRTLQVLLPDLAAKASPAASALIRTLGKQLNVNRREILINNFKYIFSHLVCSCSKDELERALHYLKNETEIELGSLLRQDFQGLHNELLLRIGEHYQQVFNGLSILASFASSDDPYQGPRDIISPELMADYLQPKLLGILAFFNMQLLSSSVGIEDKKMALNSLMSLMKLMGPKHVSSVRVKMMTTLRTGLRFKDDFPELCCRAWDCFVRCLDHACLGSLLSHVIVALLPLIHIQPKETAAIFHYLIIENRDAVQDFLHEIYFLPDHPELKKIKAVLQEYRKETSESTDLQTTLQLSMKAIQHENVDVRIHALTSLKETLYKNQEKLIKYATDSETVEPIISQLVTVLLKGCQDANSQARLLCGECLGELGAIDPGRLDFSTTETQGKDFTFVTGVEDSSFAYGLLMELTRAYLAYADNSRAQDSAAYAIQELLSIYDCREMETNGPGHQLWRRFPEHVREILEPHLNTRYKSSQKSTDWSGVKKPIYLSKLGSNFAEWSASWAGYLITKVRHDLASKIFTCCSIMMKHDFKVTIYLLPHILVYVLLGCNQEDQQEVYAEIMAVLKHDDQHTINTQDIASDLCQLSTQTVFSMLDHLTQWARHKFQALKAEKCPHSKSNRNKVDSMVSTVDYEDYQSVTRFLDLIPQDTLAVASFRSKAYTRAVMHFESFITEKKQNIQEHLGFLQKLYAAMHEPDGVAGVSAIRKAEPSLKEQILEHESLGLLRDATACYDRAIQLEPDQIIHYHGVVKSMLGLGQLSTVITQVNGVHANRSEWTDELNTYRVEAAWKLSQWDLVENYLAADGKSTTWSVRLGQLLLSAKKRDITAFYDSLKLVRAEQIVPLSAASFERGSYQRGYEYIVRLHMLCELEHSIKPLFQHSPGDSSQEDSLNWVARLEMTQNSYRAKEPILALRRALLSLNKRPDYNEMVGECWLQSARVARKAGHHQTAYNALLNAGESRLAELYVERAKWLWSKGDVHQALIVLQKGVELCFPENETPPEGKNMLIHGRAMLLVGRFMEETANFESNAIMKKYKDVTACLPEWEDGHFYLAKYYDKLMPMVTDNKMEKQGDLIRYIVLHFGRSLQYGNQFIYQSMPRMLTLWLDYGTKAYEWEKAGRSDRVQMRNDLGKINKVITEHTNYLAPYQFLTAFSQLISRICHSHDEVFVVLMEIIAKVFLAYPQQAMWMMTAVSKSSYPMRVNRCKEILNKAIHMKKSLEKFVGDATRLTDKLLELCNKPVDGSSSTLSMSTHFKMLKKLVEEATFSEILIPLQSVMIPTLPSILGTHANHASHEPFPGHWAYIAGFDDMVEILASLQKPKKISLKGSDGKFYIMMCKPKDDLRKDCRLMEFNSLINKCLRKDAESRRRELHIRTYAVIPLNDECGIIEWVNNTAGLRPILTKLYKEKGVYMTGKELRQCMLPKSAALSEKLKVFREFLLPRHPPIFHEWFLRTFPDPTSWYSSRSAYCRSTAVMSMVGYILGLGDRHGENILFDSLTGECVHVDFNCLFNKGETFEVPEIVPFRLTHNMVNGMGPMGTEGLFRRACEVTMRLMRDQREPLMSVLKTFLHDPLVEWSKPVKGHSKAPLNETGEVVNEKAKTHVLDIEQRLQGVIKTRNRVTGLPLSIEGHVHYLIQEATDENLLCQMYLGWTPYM
Chain of Serine/threonine-protein kinase OSR1 (Homo sapiens) (O95747 2-527 limits assumed): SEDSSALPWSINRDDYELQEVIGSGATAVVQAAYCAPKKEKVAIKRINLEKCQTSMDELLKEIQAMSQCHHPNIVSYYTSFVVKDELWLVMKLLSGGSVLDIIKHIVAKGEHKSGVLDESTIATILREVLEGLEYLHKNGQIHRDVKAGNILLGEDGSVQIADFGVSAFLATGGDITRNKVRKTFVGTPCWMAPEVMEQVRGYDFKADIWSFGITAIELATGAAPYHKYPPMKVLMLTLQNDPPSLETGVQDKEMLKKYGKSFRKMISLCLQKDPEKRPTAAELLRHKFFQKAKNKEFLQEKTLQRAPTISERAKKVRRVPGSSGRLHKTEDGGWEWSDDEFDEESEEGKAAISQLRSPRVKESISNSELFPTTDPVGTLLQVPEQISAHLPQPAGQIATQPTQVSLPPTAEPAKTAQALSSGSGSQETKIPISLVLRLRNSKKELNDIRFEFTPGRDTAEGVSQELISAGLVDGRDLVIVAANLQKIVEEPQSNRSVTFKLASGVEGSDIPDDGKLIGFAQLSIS
Chain of Mitogen-activated protein kinase kinase kinase kinase 1 (Homo sapiens) (Q92918 whole entry, looked up): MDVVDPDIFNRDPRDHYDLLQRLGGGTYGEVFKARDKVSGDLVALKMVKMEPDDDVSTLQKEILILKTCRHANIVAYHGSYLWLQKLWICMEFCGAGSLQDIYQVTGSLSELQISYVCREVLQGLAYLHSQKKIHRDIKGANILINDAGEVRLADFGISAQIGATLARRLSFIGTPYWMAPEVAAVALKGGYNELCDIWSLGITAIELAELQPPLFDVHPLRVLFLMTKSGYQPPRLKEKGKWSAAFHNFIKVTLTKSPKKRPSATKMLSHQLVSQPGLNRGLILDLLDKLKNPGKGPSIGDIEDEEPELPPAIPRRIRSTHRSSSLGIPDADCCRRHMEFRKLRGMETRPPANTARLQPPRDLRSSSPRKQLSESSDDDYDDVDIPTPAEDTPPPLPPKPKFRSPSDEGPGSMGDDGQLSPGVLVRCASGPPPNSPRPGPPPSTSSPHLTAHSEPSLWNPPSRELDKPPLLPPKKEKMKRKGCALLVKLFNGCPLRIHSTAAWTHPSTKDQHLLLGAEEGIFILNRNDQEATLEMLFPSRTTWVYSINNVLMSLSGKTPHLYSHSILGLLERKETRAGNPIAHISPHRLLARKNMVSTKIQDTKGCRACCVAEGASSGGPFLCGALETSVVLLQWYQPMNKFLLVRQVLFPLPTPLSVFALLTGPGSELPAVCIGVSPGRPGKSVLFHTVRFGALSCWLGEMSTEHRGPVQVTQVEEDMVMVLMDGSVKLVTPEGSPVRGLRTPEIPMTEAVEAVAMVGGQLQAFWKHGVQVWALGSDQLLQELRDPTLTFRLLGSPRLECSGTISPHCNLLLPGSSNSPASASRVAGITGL

C[C@H]1COc2c(NCCCn3cccn3)c(F)c(N)c3c(=O)c(C(=O)O)cn1c23
< 35%: inhibition at 0.1 µM [1] | inhibition [2] | inhibition [3] | inhibition [4] | inhibition [5] | inhibition [6] | inhibition [7] | inhibition [8] | inhibition [9] | inhibition [10] | inhibition at 0.1 µM [11]

C[C@H]1COc2c(NCCCc3ccccn3)c(F)c(N)c3c(=O)c(C#N)cn1c23
< 35%: inhibition at 0.1 µM [1] | inhibition [2] | inhibition [3] | inhibition [4] | inhibition [5] | inhibition [6] | inhibition [7] | inhibition [8] | inhibition [9] | inhibition [10] | inhibition at 0.1 µM [11]

C[C@H]1COc2c(NCCCn3cccn3)c(F)c(N)c3c(=O)c(C#N)cn1c23
< 35%: inhibition at 0.1 µM [1] | inhibition [2] | inhibition [3] | inhibition [4] | inhibition [5] | inhibition [6] | inhibition [7] | inhibition [8] | inhibition [9] | inhibition [10] | inhibition at 0.1 µM [11]

C[C@H]1COc2c(NCCCc3ccccn3)c(F)c(N)c3c(=O)c(C(=O)O)cn1c23
< 35%: inhibition at 0.1 µM [1] | inhibition [2] | inhibition [3] | inhibition [4] | inhibition [5] | inhibition [6] | inhibition [7] | inhibition [8] | inhibition [9] | inhibition [10] | inhibition at 0.1 µM [11]
